Our source for the IC50 and inhibition values is patent publication US8022091B2, “Triazole derivative” (Taisho Pharmaceutical Co., Ltd., priority 2006, dated 2011).

For one assay, the target named is T1, human Edg-1 (S1P1) (Homo sapiens, UniProt P21453).
T1 construct: expressed in transfected cells; host or cells: HEK-293
T1 sequence (P21453 whole entry): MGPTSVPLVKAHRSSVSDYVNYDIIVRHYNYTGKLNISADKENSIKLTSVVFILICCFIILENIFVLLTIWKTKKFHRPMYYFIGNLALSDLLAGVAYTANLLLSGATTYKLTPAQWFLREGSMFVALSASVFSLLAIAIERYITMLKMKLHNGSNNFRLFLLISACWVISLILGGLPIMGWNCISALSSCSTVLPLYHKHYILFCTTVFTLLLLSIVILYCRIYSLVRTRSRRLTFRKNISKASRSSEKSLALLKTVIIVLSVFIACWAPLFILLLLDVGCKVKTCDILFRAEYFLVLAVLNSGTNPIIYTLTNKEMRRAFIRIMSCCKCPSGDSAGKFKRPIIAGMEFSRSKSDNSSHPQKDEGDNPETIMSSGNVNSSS
Briefly: S1P1 binding assay: inhibition of [33P]-S1P binding to membrane fraction of HEK-293 cells transferred with the human Edg-1 (S1P1) gene. As to conditions: [33P]-S1P 0.1 nM, human Edg-1 (S1P1) HEK-293 membrane fraction, 1 h at 30° C.; read-out: IC50 (concentration at which binding in the absence of the test compound was inhibited by 50%). The method, then: The membrane fraction was obtained by treating the cells with a solubilizing buffer (1 mM Tris/HCl, pH 7.2) for 10 minutes on ice, centrifuging at 1000×g for 5 minutes to remove insoluble fractions, and then centrifuging at 40000×g for 30 minutes at 4° C. The resulting membrane fraction was dissolved in a binding buffer (20 mM Tris-HCl, pH 7.4, 100 mM NaCl, 15 mM NaF, 2 mM deoxypyridoxine, 4 mg/mL fatty acid-free BSA), and then [^33P]-S1P (manufactured by ARC, final concentration 0.1 nM) and a DMSO solution (final concentration of the compound 10^−5M, final concentration of DMSO 0.1%) of the test compound were added. Thereafter, the mixture was stirred and then treated for one hour at 30° C. Using a harvester, the membrane fraction was harvested onto unifilter-96 GF/C filter (manufactured by Perkin Elmer), washing was carried out four times with the binding buffer, and the filter was dried. Twenty five μL Microscint 0 (manufactured by Perkin Elmer) was added, and radioactivity was measured using Top Count NXT (manufactured by Packard) to calculate the amount (A) of [^33P]-S1P bound to the membrane fraction at the time when the compound was added.
The same procedure was carried out in the absence of the test compound, and the amount (B) of [^33P]-S1P bound was calculated. Further, the same procedure was carried out in the absence of the test compound by use of HEK-293 cells to which no Edg-1 (S1P1) gene was introduced, and the background amount (C) of [^33P]-S1P bound was calculated.
Inhibition rate (%)=[1−(A−C)/(B−C)]×100
Further, concentrations (IC50) at the time when binding in the absence of the test compound was inhibited by 50% were calculated. The membrane system binding assay was carried out in the presence of test compounds with various concentrations, and the Edg-1 (S1P1) binding inhibition rates were calculated using the equation above. Then, IC50 values were calculated using Origin (Lightstone Corp.), a software for data analysis.
Turning to `CCn1c(Oc2ccc3cc[nH]c3c2)nnc1[C@@H](C)NS(=O)(=O)c1ccc2c(Cl)cccc2c1` [Compound 151], the IC50 was at most 10 nM.

The assay is the same for the next values; noted with them: test compound 10 μM; inhibition of [33P]-S1P binding, membrane fraction.
With `CCn1c(Oc2ccc3cc[nH]c3c2)nnc1[C@@H](C)NS(=O)(=O)c1ccc(Br)cc1Cl` [Compound 448], the inhibition at 10 µM turned out to be 81.1%.

For `CCn1c(Oc2ccc3cc[nH]c3c2)nnc1[C@@H](C)NS(=O)(=O)c1c(F)cc(F)cc1Br` [Compound 436], the inhibition at 10 µM was found to be 67.5%.

Turning to `CCn1c(Oc2ccc3cc[nH]c3c2)nnc1[C@@H](C)NS(=O)(=O)c1ccc(Br)c(C)c1` [Compound 440], the inhibition at 10 µM came out at 88.4%.

`CCn1c(Oc2ccc3cc[nH]c3c2)nnc1[C@@H](C)NS(=O)(=O)c1cccc(F)c1` [Compound 423]: the inhibition at 10 µM is 87.8%.

Regarding `CCn1c(Oc2ccc3cc[nH]c3c2)nnc1[C@@H](C)NS(=O)(=O)c1c(C)cc(Cl)cc1Cl` [Compound 426], the inhibition at 10 µM is 92.3%.

In the case of `CCn1c(Oc2cccc(N3CCN(C)CC3)c2)nnc1[C@@H](C)NS(=O)(=O)c1cc(Cl)c(Cl)cc1Cl` [Compound 526], the inhibition at 10 µM was determined as 112%.

For `CCn1c(Oc2cccc(N3CCN(C)CC3)c2)nnc1[C@@H](C)NS(=O)(=O)c1cccc(Cl)c1F` [Compound 621], the inhibition at 10 µM is 95.4%.

For the molecule `CCn1c(Oc2cccc(N3CCN(C)CC3)c2)nnc1[C@@H](C)NS(=O)(=O)c1ccc(Br)cc1Cl` [Compound 616], the inhibition at 10 µM was determined as 99.9%.

In the case of `CCn1c(Oc2ccc3cc[nH]c3c2)nnc1[C@@H](C)NS(=O)(=O)c1ccc(C(C)C)cc1` [Compound 404], the inhibition at 10 µM came out at 60.2%.

For `CCn1c(Oc2cccc(N3CCN(C)CC3)c2)nnc1[C@@H](C)NS(=O)(=O)c1cc(F)ccc1C` [Compound 560], the inhibition at 10 µM amounted to 74.4%.

With `CCn1c(Oc2cccc(N3CCN(C)CC3)c2)nnc1[C@@H](C)NS(=O)(=O)c1c(F)cc(F)cc1Br` [Compound 605], the inhibition at 10 µM came to 83.4%.

Turning to `CCn1c(Oc2ccc3cc[nH]c3c2)nnc1[C@@H](C)NS(=O)(=O)c1cc(F)c(Cl)cc1F` [Compound 415], the inhibition at 10 µM was 91.5%.

With `CCn1c(Oc2cccc(N3CCN(C)CC3)c2)nnc1[C@@H](C)NS(=O)(=O)c1ccc(Cl)c2nonc12` [Compound 507], the inhibition at 10 µM is 84.8%.

For `CCn1c(Oc2ccc3cc[nH]c3c2)nnc1[C@@H](C)NS(=O)(=O)c1ccc(C(F)(F)F)cc1Br` [Compound 442], the inhibition at 10 µM stood at 70.1%.

Turning to `CCn1c(Oc2ccc3cc[nH]c3c2)nnc1[C@@H](C)NS(=O)(=O)c1c(F)c(Br)cc(F)c1Br` [Compound 420], the inhibition at 10 µM was determined as 61%.

Take `CCn1c(Oc2ccc3cc[nH]c3c2)nnc1[C@@H](C)NS(=O)(=O)c1cc(F)c(F)cc1Cl` [Compound 412]: the inhibition at 10 µM came out at 82.5%.

In the case of `CCn1c(Oc2ccc3cc[nH]c3c2)nnc1[C@@H](C)NS(=O)(=O)c1ccc(-c2cnco2)s1` [Compound 467], the inhibition at 10 µM was found to be 59.9%.

Take `CCn1c(Oc2ccc3cc[nH]c3c2)nnc1[C@@H](C)NS(=O)(=O)c1ccc(F)cc1Br` [Compound 441]: the inhibition at 10 µM came out at 63%.

As for `CCn1c(Oc2cccc(N3CCN(C)CC3)c2)nnc1[C@@H](C)NS(=O)(=O)CCc1cccc2ccccc12` [Compound 523], the inhibition at 10 µM was 114%.

Take `CCn1c(Oc2cccc(N3CCN(C)CC3)c2)nnc1[C@@H](C)NS(=O)(=O)c1cccc(OC(F)F)c1` [Compound 604]: the inhibition at 10 µM amounted to 109%.

For `CCn1c(Oc2ccc3cc[nH]c3c2)nnc1[C@@H](C)NS(=O)(=O)c1cc(Cl)ccc1F` [Compound 446], the inhibition at 10 µM came out at 75.8%.

As for `CCn1c(Oc2cccc(N3CCN(C)CC3)c2)nnc1[C@@H](C)NS(=O)(=O)c1sc2ccc(Cl)cc2c1C` [Compound 509], the inhibition at 10 µM amounted to 87%.

On to `CCn1c(Oc2cccc(N3CCN(C)CC3)c2)nnc1[C@@H](C)NS(=O)(=O)Cc1ccc(Cl)c(Cl)c1` [Compound 586], for which the inhibition at 10 µM came out at 87.9%.

As for `CCn1c(Oc2cccc(N3CCN(C)CC3)c2)nnc1[C@@H](C)NS(=O)(=O)c1c(F)c(Br)cc(F)c1Br` [Compound 589], the inhibition at 10 µM amounted to 80.2%.

For `CCn1c(Oc2cccc(N3CCN(C)CC3)c2)nnc1[C@@H](C)NS(=O)(=O)c1ccc(-c2ccnc(SC)n2)s1` [Compound 640], the inhibition at 10 µM was 59.5%.

Take `CCn1c(Oc2ccc3cc[nH]c3c2)nnc1[C@@H](C)NS(=O)(=O)c1cc(F)cc(Cl)c1C` [Compound 405]: the inhibition at 10 µM is 61.4%.

For `CCn1c(Oc2ccc3cc[nH]c3c2)nnc1[C@@H](C)NS(=O)(=O)c1cc(C)oc1C(F)(F)F` [Compound 460], the inhibition at 10 µM came out at 53.2%.

Take `CCn1c(Oc2cccc(N3CCN(C)CC3)c2)nnc1[C@@H](C)NS(=O)(=O)c1ccc(OC)cc1OC` [Compound 642]: the inhibition at 10 µM is 85.5%.

Consider `CCn1c(Oc2cccc(N3CCN(C)CC3)c2)nnc1[C@@H](C)NS(=O)(=O)c1cc(C)sc1C` [Compound 641], for which the inhibition at 10 µM came to 85.2%.

Take `CCn1c(Oc2cccc(N3CCN(C)CC3)c2)nnc1[C@@H](C)NS(=O)(=O)c1ccc(OC(F)F)cc1` [Compound 603]: the inhibition at 10 µM is 107%.

`CCn1c(Oc2cccc(N3CCN(C)CC3)c2)nnc1[C@@H](C)NS(=O)(=O)c1ccccc1C(=O)OC` [Compound 545]: the inhibition at 10 µM turned out to be 50.7%.

Consider `CCn1c(Oc2cccc(N3CCN(C)CC3)c2)nnc1[C@@H](C)NS(=O)(=O)c1cc(C)ccc1F` [Compound 620], for which the inhibition at 10 µM was 88.4%.

On to `CCn1c(Oc2ccc3cc[nH]c3c2)nnc1[C@@H](C)CS(=O)(=O)c1ccc(F)c2ccccc12` [Compound 478], for which the inhibition at 10 µM worked out at 87%.

The same assay, now with this note: test compound at 10 μM; inhibition of [33P]-S1P binding to the membrane fraction of HEK-293 cells expressing human Edg-1 (S1P1).
For the molecule `CCn1c(Oc2ccc3cc[nH]c3c2)nnc1[C@@H](C)NS(=O)(=O)c1cccc(Cl)c1Cl` [Compound 379], the inhibition at 10 µM turned out to be 89.2%.

As to `CCn1c(Oc2ccc3cc[nH]c3c2)nnc1[C@@H](C)NS(=O)(=O)c1cccc(Cl)c1C` [Compound 384], the inhibition at 10 µM came out at 88.1%.

For `CCn1c(Oc2ccc(F)cc2)nnc1[C@@H](C)NS(=O)(=O)c1ccc(F)c(F)c1` [Compound 241], the inhibition at 10 µM was determined as 95.8%.

For `CCn1c(Oc2ccc(F)cc2)nnc1[C@@H](C)NS(=O)(=O)c1cc(F)cc(F)c1` [Compound 266], the inhibition at 10 µM is 99%.

With `CCn1c(Oc2ccc(F)cc2)nnc1[C@@H](C)NS(=O)(=O)c1cccc(OC)c1` [Compound 215], the inhibition at 10 µM came to 91.4%.

As to `C=Cc1ccc(S(=O)(=O)N[C@H](C)c2nnc(Oc3ccc4cc[nH]c4c3)n2CC)cc1` [Compound 363], the inhibition at 10 µM is 96.2%.

With `CCn1c(Oc2ccc(F)cc2)nnc1[C@@H](C)NS(=O)(=O)c1c(F)cc(F)cc1Br` [Compound 265], the inhibition at 10 µM is 59.1%.

Take `CCn1c(Oc2ccc3cc[nH]c3c2)nnc1[C@@H](C)NS(=O)(=O)c1ccccc1Br` [Compound 331]: the inhibition at 10 µM came to 59.8%.

Regarding `CCn1c(Oc2ccc(F)cc2)nnc1[C@@H](C)NS(=O)(=O)c1ccc(OC(F)(F)F)cc1` [Compound 190], the inhibition at 10 µM is 87.9%.

Take `CCn1c(Oc2ccc(F)cc2)nnc1[C@@H](C)NS(=O)(=O)c1ccc2c(c1)OCCO2` [Compound 289]: the inhibition at 10 µM is 106%.

On to `CCn1c(Oc2ccc(F)cc2)nnc1[C@@H](C)NS(=O)(=O)c1cc(F)c(F)c(F)c1` [Compound 268], for which the inhibition at 10 µM was found to be 99.9%.

On to `CCCc1ccc(S(=O)(=O)N[C@H](C)c2nnc(Oc3ccc4cc[nH]c4c3)n2CC)cc1` [Compound 377], for which the inhibition at 10 µM worked out at 73.9%.

For `CCn1c(Oc2ccc(F)cc2)nnc1[C@@H](C)NS(=O)(=O)c1cc2ccccc2s1` [Compound 323], the inhibition at 10 µM was found to be 77.9%.

Consider `CCCc1ccc(S(=O)(=O)N[C@H](C)c2nnc(Oc3ccc(F)cc3)n2CC)cc1` [Compound 206], for which the inhibition at 10 µM is 85.4%.

Take `CCn1c(Oc2ccc(F)cc2)nnc1[C@@H](C)NS(=O)(=O)c1cc(Cl)ccc1OC` [Compound 254]: the inhibition at 10 µM was determined as 75.1%.

As for `CCn1c(Oc2ccc(F)cc2)nnc1[C@@H](C)NS(=O)(=O)c1ccc2c(c1)CN(C(=O)C(F)(F)F)CC2` [Compound 194], the inhibition at 10 µM stood at 80.7%.

As for `CCn1c(Oc2ccc(F)cc2)nnc1[C@@H](C)NS(=O)(=O)/C=C/c1ccccc1` [Compound 183], the inhibition at 10 µM stood at 92.8%.

In the case of `CCn1c(Oc2ccc(F)cc2)nnc1[C@@H](C)NS(=O)(=O)c1cc(C)sc1C` [Compound 300], the inhibition at 10 µM was 82.1%.

Turning to `CCn1c(Oc2ccc(F)cc2)nnc1[C@@H](C)NS(=O)(=O)c1cc(C)ccc1F` [Compound 279], the inhibition at 10 µM worked out at 79.6%.
